Reference: patent US12590098B2, “Pyrimido pyrimidinone compound and pharmaceutical composition comprising the same” (AXCESO BIOPHARMA CO., LTD., priority 2020, dated 2026)

Experiments:
PD-L1 expression [1] = assay: PD-L1 promoter-luciferase reporter assay in A549 pGL4.14-PD-L1 cell line; format: cell-based; conditions: Homo sapiens, IFNγ (50 ng/ml) inducer, luminometer, read-out: PD-L1 expression inhibition rate in A549 (%)
Procedure: The PD-L1 promoter gene region was inserted into the pGL4.14-[luc2/Hygro] vector (promega, Madison, WI) in the following way to prepare a promoter-reporter construct for measuring gene transcription activity.
After preparing primer including KpnI and Xhol restriction enzyme sites in PD-L1, PCR (polymerase chain reaction) was performed, and promoter region DNA was separated by performing electrophoresis on an agarose gel. The pGL4.14-[1uc2/Hygro] vector containing firefly luciferase as a reporter gene was treated with the same restriction enzyme, and separated by agarose gel electrophoresis and gel extraction. The pure isolated PD-L1 promoter gene region and the pGL4.14-[luc2/Hygro] vector were reacted at 50° C. for 1 hour using in-fusion DNA ligase (Takara), followed by E. coli transformation to prepare a promoter-reporter construct into which the […] promoter was inserted, which was named pGL4.14-PD-L1.
To measure the transcriptional activity of the PD-L1 gene promoter, A549 cells were transiently transfected with the PD-L1 promoter-reporter construct as follows, and then the luciferase activity of the cell extract was measured.
The DNA-lipofectamine complex was prepared according to the manufacturer's protocol using 0.1 μtg of promoter-reporter construct plasmid and Lipofectamine 2000 reagent (Invitrogen). Opti-MEM medium (Invitrogen) was used in the process of forming a complex between DNA and Lipofectamine 2000. A549 cells were prepared at 2.5×10^5 cells per well (1 ml) in a 12-well plate by checking the number of cells immediately before adding the DNA. The DNA-lipofectamine complex was carefully mixed with A549 cells and reacted in an incubator at 37° C. for 6 hours. Thereafter, the medium was changed to search for transfected cells, and PD-L1-transfected A549 cells were found through a luciferase test. This was named A549 pGL4.14-PD-L1 cell line and the experiment was conducted. IFNγ (50 ng/ml) was used as a PD-L1 inducer.
The A549 pGL4.14-PD-L1 cell line was treated with the pyrimido pyrimidinone derivatives of Example at concentrations of 0.1 μM and 1.0 μM, respectively, and PD-L1 expression inhibition was evaluated using a luminometer. For comparison, the same experiment was performed for GS9973 (Entospletinib) known to have PD-L1 expression inhibitory activity.
The inhibition rate of PD-L1 expression was calculated by Equation 1 below. PD-L1 expression inhibition rate (%)=100−[(A/B)×100] [Equation 1]
wherein, A is a value when treated with a drug, and B is a value when not treated with a drug.

PD-L1 = assay: Western-blot analysis of PD-L1 in tumors excised from B16F10 mice; set-up: species or system mouse; conditions: tumors extracted from mice after the in vivo test of Experimental Example 2; FIG. 3
Text: After the in vivo tumor inhibition test using compound 1-8 of Experimental Example 2, the PD-L1 expression inhibition effect in tumor cells extracted from mice was confirmed through Western-blot analysis. For comparison, the efficacy of inhibiting PD-L1 expression in tumor cells extracted from the control mice was also confirmed through Western-blot analysis.
Proteins were identified with the ChemiDoc™ imaging system (Bio-rad) using a chemiluminescence (ECL) kit (elpis biotec, EBP-1073).

PD-L1 expression [2] = conditions: melanoma model; cited from earlier work
melanoma cell = conditions: melanoma model; cited from earlier work
[3] = system: cell surface PD-L1 expression; conditions: kinase inhibitor library screening, melanoma; cited from earlier work

Cc1ncc(NC(=O)c2cccc(C(F)(F)F)c2)cc1N1Cc2cnc(Nc3ccccc3)nc2N(C)C1=O [Compound I-1, N-(6-methyl-5-(1-methyl-2-oxo-7-(phenylamino)-1,2-dihydropyrimido[4,5-d]pyrimidin-3(4H)-yl)pyridin-3-yl)-3-(trifluoromethyl)benzamide]
inhibition at 0.1 µM (PD-L1 expression [1]): 12.8%
inhibition at 1 µM (PD-L1 expression [1]): 87.1%

Cc1ncc(NC(=O)c2cccc(C(C)(C)C)c2)cc1N1Cc2cnc(Nc3ccccc3)nc2N(C)C1=O [Compound I-2, 3-(t-butyl)-N-(6-methyl-5-(1-methyl-2-oxo-7-(phenylamino)-1,2-dihydropyrimido[4,5-d]pyrimidin-3(4H)-yl)pyridin-3-yl)benzamide]
inhibition at 0.1 µM (PD-L1 expression [1]): 32.6%
inhibition at 1 µM (PD-L1 expression [1]): 72.5%

COc1ncc(NC(=O)c2cccc(C(F)(F)F)c2)cc1N1Cc2cnc(Nc3ccccc3)nc2N(C)C1=O [Compound I-3, N-(6-methoxy-5-(1-methyl-2-oxo-7-(phenylamino)-1,2-dihydropyrimido[4,5-d]pyrimidin-3(4H)-yl)pyridin-3-yl)-3-(trifluoromethyl)benzamide]
inhibition at 0.1 µM (PD-L1 expression [1]): 29.3%
inhibition at 1 µM (PD-L1 expression [1]): 92.5%

Cc1ncc(NC(=O)c2ccc(C3=NC(C)(C)CO3)cc2)cc1N1Cc2cnc(Nc3ccccc3)nc2N(C)C1=O [Compound I-4, 4-(4,4-dimethyl-4,5-dihydrooxazol-2-yl)-N-(6-methyl-5-(1-methyl-2-oxo-7-(phenylamino)-1,2-dihydropyrimido[4,5-d]pyrimidin-3(4H)-yl)pyridin-3-yl)benzamide]
inhibition at 0.1 µM (PD-L1 expression [1]): 20.1%
inhibition at 1 µM (PD-L1 expression [1]): 82.5%

Cc1ncc(NC(=O)c2cccc(C3=NC(C)(C)CO3)c2)cc1N1Cc2cnc(Nc3ccccc3)nc2N(C)C1=O [Compound I-5, 3-(4,4-dimethyl-4,5-dihydrooxazol-2-yl)-N-(6-methyl-5-(1-methyl-2-oxo-7-(phenylamino)-1,2-dihydropyrimido[4,5-d]pyrimidin-3(4H)-yl)pyridin-3-yl)benzamide]
inhibition at 0.1 µM (PD-L1 expression [1]): 19.4%
inhibition at 1 µM (PD-L1 expression [1]): 81.9%

COc1ncc(NC(=O)c2cccc(C(C)(C)C)c2)cc1N1Cc2cnc(Nc3ccccc3)nc2N(C)C1=O [Compound I-6, 3-(t-butyl)-N-(6-methoxy-5-(1-methyl-2-oxo-7-(phenylamino)-1,2-dihydropyrimido[4,5-d]pyrimidin-3(4H)-yl)pyridin-3-yl)benzamide]
inhibition at 0.1 µM (PD-L1 expression [1]): 13.9%
inhibition at 1 µM (PD-L1 expression [1]): 94.1%

COc1ncc(NC(=O)c2cccc(C3=NC(C)(C)CO3)c2)cc1N1Cc2cnc(Nc3ccccc3)nc2N(C)C1=O [Compound I-7, 3-(4,4-dimethyl-4,5-dihydrooxazol-2-yl)-N-(6-methoxy-5-(1-methyl-2-oxo-7-(phenylamino)-1,2-dihydropyrimido[4,5-d]pyrimidin-3(4H)-yl)pyridin-3-yl)benzamide]
inhibition at 0.1 µM (PD-L1 expression [1]): 13.1%
inhibition at 1 µM (PD-L1 expression [1]): 85.3%

CN1C(=O)N(c2cc(NC(=O)c3cccc(C(F)(F)F)c3)cnc2Cl)Cc2cnc(Nc3ccccc3)nc21 [Compound I-8, N-(6-chloro-5-(1-methyl-2-oxo-7-(phenylamino)-1,2-dihydropyrimido[4,5-d]pyrimidin-3(4H)-yl)pyridin-3-yl)-3-(trifluoromethyl)benzamide]
expression of PD-L1 in tumor compared to the control group (Western blot) (PD-L1): reduced
inhibition at 0.1 µM (PD-L1 expression [1]): 60.4%
inhibition at 1 µM (PD-L1 expression [1]): 97.5%

CN1C(=O)N(c2cc(NC(=O)c3cccc(C(C)(C)C)c3)cnc2Cl)Cc2cnc(Nc3ccccc3)nc21 [Compound I-9, 3-(t-butyl)-N-(6-chloro-5-(1-methyl-2-oxo-7-(phenylamino)-1,2-dihydropyrimido[4,5-d]pyrimidin-3(4H)-yl)pyridin-3-yl)benzamide]
inhibition at 0.1 µM (PD-L1 expression [1]): 48.8%
inhibition at 1 µM (PD-L1 expression [1]): 97.2%

CN1C(=O)N(c2cc(NC(=O)c3csc(C(C)(C)C)n3)cnc2Cl)Cc2cnc(Nc3ccccc3)nc21 [Compound I-10, 2-(t-butyl)-N-(6-chloro-5-(1-methyl-2-oxo-7-(phenylamino)-1,2-dihydropyrimido[4,5-d]pyrimidin-3(4H)-yl)pyridin-3-yl)thiazole-4-carboxamide]
inhibition at 0.1 µM (PD-L1 expression [1]): 67%
inhibition at 1 µM (PD-L1 expression [1]): 98%

CN1C(=O)N(c2cc(NC(=O)c3cccc(C(F)(F)F)c3)cnc2Cl)Cc2cnc(Nc3ccc(O)cc3)nc21 [Compound I-11, N-(6-chloro-5-(7-((4-hydroxyphenyl)amino)-1-methyl-2-oxo-1,2-dihydropyrimido[4,5-d]pyrimidin-3(4H)-yl)pyridin-3-yl)-3-(trifluoromethyl)benzamide]
inhibition at 0.1 µM (PD-L1 expression [1]): 65%
inhibition at 1 µM (PD-L1 expression [1]): 98%

c1cn2cc(-c3ccc4cn[nH]c4c3)nc(Nc3ccc(N4CCOCC4)cc3)c2n1 [GS9973(Entospletinib), Entospletinib, reference compound]
inhibition at 0.1 µM (PD-L1 expression [1]): 10.3%
inhibition at 1 µM (PD-L1 expression [1]): 47.1%

O=c1cc(-c2ccc(O)cc2)oc2cc(O)cc(O)c12 [apigenin]
suppression of PD-L1 expression induced by IFN-γ (PD-L1 expression [2]): significantly suppress
melanoma cell growth inhibitory effects (melanoma cell): melanoma cell growth inhibitory effects

COc1cc(/C=C/C(=O)CC(=O)/C=C/c2ccc(O)c(OC)c2)ccc1O [curcumin]
melanoma cell growth inhibitory effects (melanoma cell): melanoma cell growth inhibitory effects

CNC(=O)c1cc(Oc2ccc(NC(=O)Nc3ccc(Cl)c(C(F)(F)F)c3)c(F)c2)ccn1 [regorafenib]
reduction of cell surface PD-L1 expression level [3]: more than 50%
